Values quoted from earlier work as cited in patent publication US20120237592A1, “ENDOPLASMIC RETICULUM TARGETING LIPOSOMES” (priority 2008, published 2012).

Experiments:
BVDV = conditions: literature
HIV = conditions: literature
HIV-1 = HIV-1 infected patients, literature
HBV = conditions: literature

## CCCCN1C[C@H](O)[C@@H](O)[C@H](O)[C@H]1CO [NB-DNJ, N-butyl-1,5-dideoxy-1,5-imino-D-glucitol]
BVDV
  infectivity of BVDV viral progeny: decreased infectivity of viral progeny
HIV
  infectious virus released from HIV-infected cells: greatly reduced
HIV-1
  tolerability at concentrations necessary for antiviral activity: serious side-effects
HBV
  secretion of HBV particles: suppresses secretion of HBV particles
